Common to all, as to assay type: cell-based, human
Data set [1] relates to MIA PaCa-2 pancreatic cell carcinoma. The data set can be described thus: Relative colony forming efficiency after antisense treatment (Table 13). To be noted: 0.2 μM antisense oligodeoxyribonucleotide phosphorothioate; MIA PaCa-2 cells; averages of 2-8 determinations.
Data set [2] concerns A549 lung cell carcinoma. Described as above. To be noted: 0.2 μM antisense oligodeoxyribonucleotide phosphorothioate; A549 cells; averages of 2-8 determinations.
Data set [3] concerns T24 bladder cell carcinoma. The data set is described as above. Particulars: 0.2 μM antisense oligodeoxyribonucleotide phosphorothioate; T24 cells; averages of 2-8 determinations.
For data set [4], the system named is MDA-MB-231 breast cell adenocarcinoma. The data set can be described thus: Relative colony forming efficiency after antisense treatment (Table 13, FIG. 11, FIG. 12). To be noted: 0.2 μM antisense oligodeoxyribonucleotide phosphorothioate; MDA-MB-231 cells; averages of 2-8 determinations. The method, then:
Colony forming efficiency was determined as previously reported [Huang and Wright, 1994]. The cells were cultured for 24 hours at 37° C. in growth medium with 10% fetal bovine serum. The cells were washed in 5 ml phosphate buffered saline, pH 7.2, once prior to lipofectin+/−oligonucleotide treatment.
The oligonucleotides being tested were added to cell cultures in the presence of 2.5 μg of DOTMA/DOPE (Lipofectin; Life Technologies, Inc.) for four hours. The oligonucleotide was tested at 0.2 μM unless otherwise indicated. Controls were the cultures treated with lipofectin but without the oligonucleotide. After 4 hours the medium containing the oligonucleotide was removed and washed with 5 ml of growth medium. The cells were then cultured in growth medium containing 10% fetal bovine serum for seven to ten days. Surviving cells were visualized by methylene blue staining, and colonies were scored. In some experiments cell aliquotes were removed from the culture and viability was determined using the trypan blue exclusion test [Phillips, 1973]. Results were analyzed as percent of surviving cells compared to control cells.
To test the antisense effects of many of these sequences as phosphorthioate deoxyribonucleotides, they were examined in relative colony forming experiments performed with a series of human tumor cell lines. Many of these antisense constructs, as predicted, are potent inhibitors of human tumor cell proliferation. For results obtained with cancer cells derived from the bladder, breast, lung, colon, pancreas, prostate, liver and cervix, see Table 13. In addition, in vivo studies with AS-II-626-20 were undertaken in C3H/HeN mice as reported in Table 14 and show a significant reduction in metastasis in the antisense treated mice.
Colony forming ability of MDA-MB-231 human breast cancer cells treated with 28 different antisense oligonucleotides was estimated as previously described (Choy et al., 1988). Aliquots of cell suspension were seeded into 60 mm Petri dishes and incubated at 37° C. overnight in α-MEM medium supplemented with 10% fetal bovine serum. Cells were washed in 5 ml of phosphate buffered saline, pH 7.2, prior to 0.2 μM antisense/lipofectin treatments for 4 hours. The media containing the antisense oligonucleotides were removed and cells were washed once and cultured in growth medium for 7 to 10 days. Colonies were stained with methylene blue and scored as described (Choy et al., 1988; Huang and Wright 1994). Percent inhibition was calculated by comparison with the number of colonies present in cultures grown in the absence of antisense oligonucleotides. All experiments were performed in quadruplicate. FIG. 11 is a graph of the percentage inhibition of colony formation by treatment with the various antisense oligonucleotides.
Colony forming ability of various human tumor cell lines was estimated by determining relative colony forming efficiencies (Choy et al., 1988). Cells from various cell lines were washed in 5 ml of phosphate buffered saline, pH 7.2. The cells were treated with 0.2 μM AS-I-618-20 antisense oligonucleotide/lipofectin for 4 hours. The medium containing the antisense oligonucleotide was then removed and the cells were gently washed with 5 ml of growth medium. The cells were cultured in growth medium containing 10% fetal bovine serum for seven to ten days. […] The following human tumor cell lines were evaluated: HepG2 (liver), SK-OV-3 (ovary), U87 (brain), A2058 (melanoma), H460 (lung), MDA-MB-231 (breast) and AsPC-1 (pancreas).

The test system of data set [5] is PC-3 prostrate cell adenocarcinoma. The data set can be described thus: Relative colony forming efficiency after antisense treatment (Table 13). To be noted: 0.2 μM antisense oligodeoxyribonucleotide phosphorothioate; PC-3 cells; averages of 2-8 determinations.
Data set [6] relates to HepG2 hepatocellular carcinoma. Put plainly: Relative colony forming efficiency after antisense treatment (Table 13, FIG. 12). Particulars: 0.2 μM antisense oligodeoxyribonucleotide phosphorothioate; HepG2 cells; averages of 2-8 determinations.
In data set [7] the test system is HCT116 colon cell carcinoma. The data set can be described thus: Relative colony forming efficiency after antisense treatment (Table 13). To be noted: 0.2 μM antisense oligodeoxyribonucleotide phosphorothioate; HCT116 cells; averages of 2-8 determinations.

Strand notation (5' to 3'): a small letter for the sugar, then the base; units joined by * are phosphorothioate-linked, units joined directly phosphodiester-linked; [ ] holds rarer units or linkages, { } end groups; capitals alone tell only the bases. d = 2'-deoxy (DNA)

On to “AAACGGCTTCTCACACATAT (antisense; DNA, all phosphorothioate, methylation of C not given here) [AS-II-2151-20]”, for which the “Reduced relative colony forming efficiency, expressed as % inhibition, MIA PaCa-2” value in data set [1] is on record as 62.15%. Also, the “Reduced relative colony forming efficiency, expressed as % inhibition, A549” value in data set [2] is 79.19%. Besides, the “Reduced relative colony forming efficiency, expressed as % inhibition, T24” value in data set [3] came to 79.83%. Moreover, the “Reduced relative colony forming efficiency, expressed as % inhibition, MDA-MB-231” value in data set [4] was 95.14%. Also, the “Reduced relative colony forming efficiency, expressed as % inhibition, PC-3” value in data set [5] is 84.86%.
For “AACCGGAAAAGAAAATGCCT (antisense; DNA, all phosphorothioate, methylation of C not given here) [AS-II-890-20]”, in that order: 66.02%, 81.6%, 82.07%, 88.2% and 87.93%.
Consider “ACCCTTCCCATTGGCTGCGC (dA*dC*dC*dC*dT*dT*dC*dC*dC*dA*dT*dT*dG*dG*dC*dT*dG*dC*dG*dC; antisense) [AS-II-6-20]”, for which the “Reduced relative colony forming efficiency, expressed as % inhibition, MIA PaCa-2” value in data set [1] is on record as 95.15%. Besides, in data set [3], the “Reduced relative colony forming efficiency, expressed as % inhibition, T24” value worked out at 73.85%. In addition, the “Reduced relative colony forming efficiency, expressed as % inhibition, MDA-MB-231” value in data set [4] is recorded as 88.4%. Besides, in data set [5], the “Reduced relative colony forming efficiency, expressed as % inhibition, PC-3” value is given as 89.21%. In addition, in data set [6], the “Reduced relative colony forming efficiency, expressed as % inhibition, HepG2” value was 97.89%.
For the sequence “ATTAAAATCTGCGTTGAAGC (DNA, all phosphorothioate, methylation of C not given here) [AS-II-1700-20]”, the “Reduced relative colony forming efficiency, expressed as % inhibition, MIA PaCa-2” value in data set [1] was 34.52%. For the same sequence, the “Reduced relative colony forming efficiency, expressed as % inhibition, A549” value in data set [2] turned out to be 77.28%. Further, the “Reduced relative colony forming efficiency, expressed as % inhibition, T24” value in data set [3] stood at 70.94%. Moreover, the “Reduced relative colony forming efficiency, expressed as % inhibition, MDA-MB-231” value in data set [4] was 30.75%. Also, in data set [5], the “Reduced relative colony forming efficiency, expressed as % inhibition, PC-3” value is 90.63%.
For “CAGAATATCGACGCAAAAGA (antisense; DNA, all phosphorothioate, methylation of C not given here) [AS-II-909-20]”, in that order: 46.13%, 78.68%, 78.57%, 45.96% and 84.86%.
For “GGCCCAGATCACCCCTAAAT (antisense; DNA, all phosphorothioate, methylation of C not given here) [AS-II-2128-20]”, in that order: 39.23%, 87.31%, 83.74%, 91.3% and 88.89%.
For “TATCGCCGCCGTGAGTACAA (DNA, all phosphorothioate, methylation of C not given here) [AS-II-1768-20]”, in that order: 60.36%, 86.8%, 74.56%, 91.56% and 86.36%.
With “TCGCCTACTCTCTTCTCAAA (DNA, all phosphorothioate, methylation of C not given here) [AS-II-1278-20]”, in data set [1], the “Reduced relative colony forming efficiency, expressed as % inhibition, MIA PaCa-2” value was determined as 57.05%. In addition, in data set [3], the “Reduced relative colony forming efficiency, expressed as % inhibition, T24” value stood at 65.42%. Besides, the “Reduced relative colony forming efficiency, expressed as % inhibition, MDA-MB-231” value in data set [4] worked out at 90.68%. For the same sequence, the “Reduced relative colony forming efficiency, expressed as % inhibition, PC-3” value in data set [5] came to 85.31%.
For the sequence “TGGCACCAACTGACTAATAT (antisense; DNA, all phosphorothioate, methylation of C not given here) [AS-II-1976-20]”, in data set [4], the “Reduced relative colony forming efficiency, expressed as % inhibition, MDA-MB-231” value turned out to be 89.6%. Besides, in data set [5], the “Reduced relative colony forming efficiency, expressed as % inhibition, PC-3” value is given as 88.16%.
For “TGGCTGTGCTGGTTAAAGGA (DNA, all phosphorothioate, methylation of C not given here) [AS-II-1659-20]”, in data set [1], the “Reduced relative colony forming efficiency, expressed as % inhibition, MIA PaCa-2” value is given as 42.54%. In data set [2], the “Reduced relative colony forming efficiency, expressed as % inhibition, A549” value stood at 54.7%. Further, the “Reduced relative colony forming efficiency, expressed as % inhibition, T24” value in data set [3] is listed as 74.09%. Moreover, the “Reduced relative colony forming efficiency, expressed as % inhibition, MDA-MB-231” value in data set [4] stood at 42.86%. Also, the “Reduced relative colony forming efficiency, expressed as % inhibition, PC-3” value in data set [5] was 81.56%.
“TGGGACAGGGTGCACGGGCG (antisense dT*dG*dG*dG*dA*dC*dA*dG*dG*dG*dT*dG*dC*dA*dC*dG*dG*dG*dC*dG) [AS-II-130-20]”: the “Reduced relative colony forming efficiency, expressed as % inhibition, MIA PaCa-2” value in data set [1] is reported as 82.11%. For the same sequence, the “Reduced relative colony forming efficiency, expressed as % inhibition, A549” value in data set [2] is on record as 86.48%. In data set [3], the “Reduced relative colony forming efficiency, expressed as % inhibition, T24” value was determined as 51.94%. For the same sequence, in data set [7], the “Reduced relative colony forming efficiency, expressed as % inhibition, HCT116” value was 57.98%. Further, the “Reduced relative colony forming efficiency, expressed as % inhibition, PC-3” value in data set [5] is recorded as 74.66%. For the same sequence, the “Reduced relative colony forming efficiency, expressed as % inhibition, HepG2” value in data set [6] is on record as 94.28%.
Regarding “TTCATGGTGTGGCTAGTTGG (DNA, all phosphorothioate, methylation of C not given here) [AS-II-1438-20]”, in data set [1], the “Reduced relative colony forming efficiency, expressed as % inhibition, MIA PaCa-2” value was 42.13%. The “Reduced relative colony forming efficiency, expressed as % inhibition, A549” value in data set [2] turned out to be 51.27%. The “Reduced relative colony forming efficiency, expressed as % inhibition, T24” value in data set [3] is on record as 43.7%. For the same sequence, in data set [4], the “Reduced relative colony forming efficiency, expressed as % inhibition, MDA-MB-231” value stood at 69.06%. Besides, the “Reduced relative colony forming efficiency, expressed as % inhibition, PC-3” value in data set [5] worked out at 83.96%.
Regarding “TTCTGGCAAAAGGTGATACT (DNA, all phosphorothioate, methylation of C not given here) [AS-II-1538-20]”, the “Reduced relative colony forming efficiency, expressed as % inhibition, MIA PaCa-2” value in data set [1] turned out to be 50.62%. For the same sequence, in data set [2], the “Reduced relative colony forming efficiency, expressed as % inhibition, A549” value is reported as 90.34%. For the same sequence, the “Reduced relative colony forming efficiency, expressed as % inhibition, T24” value in data set [3] was found to be 67.29%. The “Reduced relative colony forming efficiency, expressed as % inhibition, HCT116” value in data set [7] is on record as 51.28%. In addition, the “Reduced relative colony forming efficiency, expressed as % inhibition, PC-3” value in data set [5] turned out to be 84.71%. Further, the “Reduced relative colony forming efficiency, expressed as % inhibition, HepG2” value in data set [6] turned out to be 96.84%.
For “TTTTAACTGGCTGTGCTGGT (DNA, all phosphorothioate, methylation of C not given here) [AS-II-1666-20]”, the “Reduced relative colony forming efficiency, expressed as % inhibition, MIA PaCa-2” value in data set [1] is recorded as 49.72%. Besides, the “Reduced relative colony forming efficiency, expressed as % inhibition, A549” value in data set [2] is 54.82%. For the same sequence, in data set [3], the “Reduced relative colony forming efficiency, expressed as % inhibition, T24” value is 71.71%. Moreover, in data set [4], the “Reduced relative colony forming efficiency, expressed as % inhibition, MDA-MB-231” value is listed as 26.71%. The “Reduced relative colony forming efficiency, expressed as % inhibition, PC-3” value in data set [5] worked out at 86.06%.
